Values of other authors, collected in patent US20190008784A1, “NOVEL SECNIDAZOLE SOFT GELATIN CAPSULE FORMULATIONS AND USES THEREOF” (SYMBIOMIX THERAPEUTICS, LLC, priority 2017, published 2019).

Legend:
bacterial vaginosis [1] = conditions: 500 mg ovule formulation compared with 37.5 mg gel
bacterial vaginosis [2] = conditions: intravaginal 750 mg ovule compared with 500 mg ovule

In the case of `Cc1ncc([N+](=O)[O-])n1CCO` [metronidazole], the “Effectiveness in the treatment of bacterial vaginosis” value (bacterial vaginosis [1]) is listed as “significantly more effective” and the Cure rates (bacterial vaginosis [2]) is listed as “higher cure rates”.
